Results as given in the SangsterLogP compilation.

Test: method code SF-AS, from DOI: 10.1016/0006-2952(77)90261-1, PMID: 588293
Settings: not given

SMILES | logP
CCC1(CC(C)C(C)C)C(=O)NC(=O)NC1=O (configuration not stated) | 2.02

Same assay, conditions: pH 7.4

SMILES | logD
CCC1(C2=CC3CCC(C2)C3)C(=O)NC(=O)N(C)C1=O (configuration not stated) | 3.15
C=CCC1(CC(C)(C)C)C(=O)NC(=O)NC1=O | 1.71
C=CCC1(C(C)C)C(=O)NC(=O)NC1=O | 1.22
C=CCC1(C2C=CCC2)C(=O)NC(=O)NC1=O (configuration not stated) | 1.51
C=C(Br)CC1(C(C)CC)C(=O)NC(=O)N(C)C1=O (configuration not stated) | 2.43
CCCCCCCC1(CC)C(=O)NC(=O)NC1=O | 2.91
CCCCCCCCC1(CC)C(=O)NC(=O)NC1=O | 3.08
C=C(Br)CC1(C(C)CC)C(=O)NC(=O)NC1=O (configuration not stated) | 1.72
CCC1(C2=CCCCCC2)C(=O)NC(=O)N(C)C1=O (configuration not stated) | 2.82
C=C(Br)CC1(C(C)C)C(=O)NC(=O)NC1=O | 1.47
C=CCC1(C(C)CCC)C(=O)NC(=O)NC1=O (configuration not stated) | 1.97
CCC1(C2=CC3CCC(C2)C3)C(=O)NC(=O)NC1=O (configuration not stated) | 2.53
C=CCC1(CC(=C)Br)C(=O)NC(=O)NC1=O | 1.37
C=C(Br)CC1(C(C)C)C(=O)NC(=O)N(C)C1=O (configuration not stated) | 2.11
CCC1(C2=CCCCC2)C(=O)NC(=O)NC1=O | 1.77
CCC1(C2=CCCCCC2)C(=O)NC(=O)NC1=O | 2.17
C=C(Br)CC1(C(C)CCC)C(=O)NC(=O)NC1=O (configuration not stated) | 2.09
CCCCCCC1(CC)C(=O)NC(=O)NC1=O | 2.46
CCCC1(CC)C(=O)NC(=O)NC1=O | 0.66
C=CCC1(C2=CCCC2)C(=O)NC(=O)N(C)C1=O (configuration not stated) | 1.89
CCC1(C2=CCCCC2)C(=O)NC(=O)N(C)C1=O (configuration not stated) | 2.25
